Converted amounts (≈) assume the structure as drawn.
Legend:
Type in all cases: functional
Aspergillus flavus [1] = experiment: Antifungal activity against Aspergillus flavus after 24 hrs by well diffusion method
Candida albicans [2] = experiment: Antifungal activity against Candida albicans after 24 hrs by well diffusion method
Aspergillus niger [3] = experiment: Antifungal activity against Aspergillus niger assessed as zone of inhibition at 100 ug/ml measured after 24 hrs by well diffusion method; conditions: read-out: IZ
Candida albicans [4] = experiment: Antifungal activity against Candida albicans assessed as zone of inhibition at 50 ug/ml measured after 24 hrs by well diffusion method; conditions: read-out: IZ
[5] = Antioxidant activity assessed as DPPH free radical scavenging activity at 80 ug/ml after 15 mins by spectrophotometric method
[6] = Antioxidant activity assessed as H2O2 free radical scavenging activity at 100 ug/ml after 10 to 15 mins by spectrophotometric analysis
Aspergillus flavus [7] = experiment: Antifungal activity against Aspergillus flavus assessed as zone of inhibition at 25 ug/ml measured after 24 hrs by well diffusion method; conditions: read-out: IZ
[8] = Antioxidant activity assessed as H2O2 free radical scavenging activity at 20 ug/ml after 10 to 15 mins by spectrophotometric analysis
[9] = Antioxidant activity assessed as DPPH free radical scavenging activity at 20 ug/ml after 15 mins by spectrophotometric method
[10] = Antioxidant activity assessed as H2O2 free radical scavenging activity at 80 ug/ml after 10 to 15 mins by spectrophotometric analysis
Aspergillus niger [11] = experiment: Antifungal activity against Aspergillus niger assessed as zone of inhibition at 50 ug/ml measured after 24 hrs by well diffusion method; conditions: read-out: IZ
[12] = Antioxidant activity assessed as H2O2 free radical scavenging activity by spectrophotometric analysis
Candida albicans [13] = experiment: Antifungal activity against Candida albicans assessed as zone of inhibition at 25 ug/ml measured after 24 hrs by well diffusion method; conditions: read-out: IZ
Aspergillus flavus [14] = experiment: Antifungal activity against Aspergillus flavus assessed as zone of inhibition at 100 ug/ml measured after 24 hrs by well diffusion method; conditions: read-out: IZ
[15] = Antioxidant activity assessed as DPPH free radical scavenging activity at 60 ug/ml after 15 mins by spectrophotometric method
[16] = Antioxidant activity assessed as DPPH free radical scavenging activity at 100 ug/ml after 15 mins by spectrophotometric method
Aspergillus niger [17] = experiment: Antifungal activity against Aspergillus niger after 24 hrs by well diffusion method
Aspergillus niger [18] = experiment: Antifungal activity against Aspergillus niger assessed as zone of inhibition at 25 ug/ml measured after 24 hrs by well diffusion method; conditions: read-out: IZ
[19] = Antioxidant activity assessed as DPPH free radical scavenging activity measured after 15 mins by spectrophotometric method
[20] = Antioxidant activity assessed as H2O2 free radical scavenging activity at 60 ug/ml after 10 to 15 mins by spectrophotometric analysis
[21] = Antioxidant activity assessed as H2O2 free radical scavenging activity at 40 ug/ml after 10 to 15 mins by spectrophotometric analysis
[22] = Antioxidant activity assessed as DPPH free radical scavenging activity at 40 ug/ml after 15 mins by spectrophotometric method
Aspergillus flavus [23] = experiment: Antifungal activity against Aspergillus flavus assessed as zone of inhibition at 50 ug/ml measured after 24 hrs by well diffusion method; conditions: read-out: IZ
Candida albicans [24] = experiment: Antifungal activity against Candida albicans assessed as zone of inhibition at 100 ug/ml measured after 24 hrs by well diffusion method; conditions: read-out: IZ

MIC (Aspergillus flavus [1]) [µg/mL]	MIC (Candida albicans [2]) [µg/mL]	IC50 [12] [µg/mL]	MIC (Aspergillus niger [17]) [µg/mL]	IC50 [19] [µg/mL]	Structure (SMILES)	zone of inhibition at 100 µg/mL (Aspergillus niger [3]) [mm]	zone of inhibition at 50 µg/mL (Candida albicans [4]) [mm]	inhibition [5] [%]	inhibition [6] [%]	zone of inhibition at 25 µg/mL (Aspergillus flavus [7]) [mm]	inhibition [8] [%]	inhibition [9] [%]	inhibition [10] [%]	zone of inhibition at 50 µg/mL (Aspergillus niger [11]) [mm]	zone of inhibition at 25 µg/mL (Candida albicans [13]) [mm]	zone of inhibition at 100 µg/mL (Aspergillus flavus [14]) [mm]	inhibition [15] [%]	inhibition [16] [%]	zone of inhibition at 25 µg/mL (Aspergillus niger [18]) [mm]	inhibition [20] [%]	further results
< 3.12	3.12 (≈ 8.96 µM)	43.712 (≈ 126 µM)	12.5 (≈ 35.9 µM)	29.307 (≈ 84.2 µM)	Clc1ccc(/C=N/Nc2nc(-c3ccccc3)cs2)c(Cl)c1	11	14	92.6	87.4	12	78.1	76.6	83.1	10	12	25	92.8	95.8	8	80.4	inhibition [21]: 78.9%; inhibition [22]: 90.2%; zone of inhibition at 50 µg/mL (Aspergillus flavus [23]): 15 mm; zone of inhibition at 100 µg/mL (Candida albicans [24]): 15 mm
6.25 (≈ 16.3 µM)	3.12 (≈ 8.15 µM)	43.537 (≈ 114 µM)	6.12 (≈ 16 µM)	32.224 (≈ 84.2 µM)	Clc1ccc(-c2csc(N/N=C/c3ccc(Cl)cc3Cl)n2)cc1	17	15	92.3	84.4	12	76	73.9	83.1	13	10	16	88.9	92.4	12	80.4	inhibition [21]: 76.2%; inhibition [22]: 85.9%; zone of inhibition at 50 µg/mL (Aspergillus flavus [23]): 15 mm; zone of inhibition at 100 µg/mL (Candida albicans [24]): 18 mm
